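Interpolation was linear, between the two tested concentrations surrounding the appropriate level; five concentrations were tested over 48 hours in 96-well plates. Definition used: TGI = concentration required for complete inhibition of growth.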
Legend:
Experiment in all cases: growth of human tumour cells (NCI), 48 h
786-0 renal = tested on: 786-0 renal
A498 renal = tested on: A498 renal
A549 NSCLC = tested on: A549 NSCLC
ACHN renal = tested on: ACHN renal
BT-549 breast = tested on: BT-549 breast
CAKI-1 renal = tested on: CAKI-1 renal
CCRF-CEM leukemia = tested on: CCRF-CEM leukemia
COLO 205 colon = tested on: COLO 205 colon
DU-145 prostate = tested on: DU-145 prostate
EKVX NSCLC = tested on: EKVX NSCLC
HCC-2998 colon = tested on: HCC-2998 colon
HCT-116 colon = tested on: HCT-116 colon
HCT-15 colon = tested on: HCT-15 colon
HL-60(TB) leukemia = tested on: HL-60(TB) leukemia
HOP-62 NSCLC = tested on: HOP-62 NSCLC
HOP-92 NSCLC = tested on: HOP-92 NSCLC
HS 578T breast = tested on: HS 578T breast
HT29 colon = tested on: HT29 colon
IGROV1 ovarian = tested on: IGROV1 ovarian
K-562 leukemia = tested on: K-562 leukemia
KM12 colon = tested on: KM12 colon
LOX IMVI melanoma = tested on: LOX IMVI melanoma
M14 melanoma = tested on: M14 melanoma
MALME-3M melanoma = tested on: MALME-3M melanoma
MCF7 breast = tested on: MCF7 breast
MDA-MB-231 breast = tested on: MDA-MB-231 breast
MDA-MB-435 = tested on: MDA-MB-435
MDA-N = tested on: MDA-N
MOLT-4 leukemia = tested on: MOLT-4 leukemia
NCI-H226 lung = tested on: NCI-H226 lung
NCI-H23 lung = tested on: NCI-H23 lung
NCI-H460 lung = tested on: NCI-H460 lung
NCI-H522 lung = tested on: NCI-H522 lung
NCI/ADR-RES ovarian = tested on: NCI/ADR-RES ovarian
OVCAR-3 ovarian = tested on: OVCAR-3 ovarian
OVCAR-5 ovarian = tested on: OVCAR-5 ovarian
OVCAR-8 ovarian = tested on: OVCAR-8 ovarian
PC-3 prostate = tested on: PC-3 prostate
RPMI-8226 leukemia = tested on: RPMI-8226 leukemia
RXF 393 renal = tested on: RXF 393 renal
SF-268 CNS = tested on: SF-268 CNS
SF-295 CNS = tested on: SF-295 CNS
SF-539 CNS = tested on: SF-539 CNS
SK-MEL-2 melanoma = tested on: SK-MEL-2 melanoma
SK-MEL-28 melanoma = tested on: SK-MEL-28 melanoma
SK-MEL-5 melanoma = tested on: SK-MEL-5 melanoma
SK-OV-3 ovarian = tested on: SK-OV-3 ovarian
SN12C renal = tested on: SN12C renal
SNB-19 CNS = tested on: SNB-19 CNS
SNB-75 CNS = tested on: SNB-75 CNS
SR leukemia = tested on: SR leukemia
SW-620 colon = tested on: SW-620 colon
T-47D breast = tested on: T-47D breast
TK-10 renal = tested on: TK-10 renal
U251 CNS = tested on: U251 CNS
UACC-257 melanoma = tested on: UACC-257 melanoma
UACC-62 melanoma = tested on: UACC-62 melanoma
UO-31 renal = tested on: UO-31 renal

Measured: TGI

O=C(O)c1nc(-c2ccccc2)ncc1-c1nnnn1-c1ccccc1
> 100 µM: all assays above

Source: PubChem BioAssay (NCI)
